The values that follow come from patent US8071763B2, “Methods for treatment of nocturia” (Daiichi Sankyo Company, Limited, priority 2002, dated 2011).

The data set has as its system patients with nocturia. In words: Continuation and termination of loxoprofen administration after the trial treatment. Format: in vivo, human. The procedure: After the initial study, loxoprofen was administered at the patients' discretion; 101 continued loxoprofen therapy for =320 (mean 61) days. After the evaluation, loxoprofen therapy was continued or not according to the patients' wishes (Table 5). Of 101 excellent and improved patients, 11 continued to take loxoprofen every night and 43 when necessary. The improvement of nocturia lasted for several months even after discontinuation of therapy in 11 (10%) who discontinued loxoprofen after 5 to 310 days' administration. In addition, in five patients in whom loxoprofen's effectiveness reduced after continuous administration, the effectiveness recovered with occasional administration following withdrawal for several weeks.

The mark [1] stands for this setting: discontinued after 5 to 310 days' administration.
The mark [2] stands for this setting: patients with Excellent Response.
Where [3] appears, read: patients with Improved Response.

As for `CC(C(=O)O)c1ccc(CC2CCCC2=O)cc1` (centres unmarked) [loxoprofen, loxoprofen sodium], under setting [1], the “Improvement of nocturia lasted for several months after discontinuation of therapy, % of patients” value worked out at 10% and the “Improvement of nocturia lasted for several months after discontinuation of therapy, no. of patients” value was 11. Besides, the “Effectiveness reduced after continuous administration and recovered with occasional administration, no. of patients” value (following withdrawal for several weeks) is on record as “five”. Under setting [2], the “Discontinued therapy due to adverse events, no. of patients” value came out at 1 and the “Discontinued therapy: cured or stable improvement, no. of patients” value is on record as 7. Also, under setting [3], the “Discontinued therapy due to adverse events, no. of patients” value worked out at 9; the “Discontinued therapy: cured or stable improvement, no. of patients” value is recorded as 4; the “Discontinued therapy: reduced efficacy, no. of patients” value stood at 2.
